# Patent US20140173774A1, “SOYBEAN TRAN[…] EFFICIENT AND HIGH-[…] PRODUCTION” (Dow AgroSciences LLC, priority 2012, published 2014)
# Legend:
# soybean explants = test: Glyphosate selection of split-seed explants transformed with pDAB107553; design: species or system Glycine max cv. Maverick
# Protocol: The novel Agrobacterium-mediated soybean split-seed comprising a portion of an embryonic axis transformation method described in Example 2 was used to transform mature soybean (Glycine max) cv. Maverick seeds with an Agrobacterium strain harboring pDAB 107553. Three different concentrations of glyphosate (e.g., 0.025 mM, 0.05 mM and 0.1 mM) were incorporated into the selection schemes for the soybean split-seed comprising a portion of an embryonic axis transformation method.
# As the transformation experiment progressed through various subculture stages, the health of the soybean explants deteriorated. […] The intensity of cotyledon yellowing was more prominent in soybean explants cultured on greater rates of glyphosate (FIG. 9).
# The surface of the explants was turning soft and creamy in consistency. The softening effect was very pronounced at the end of SE-1 stage onwards.
# [1] = tested on: un-transformed soybean explants; test: Glyphosate dose response study on un-transformed soybean explants in tissue culture; details: for Number of Explants at Various Stages of Selection: End of SE-2 / Number of Explants at Various Stages of Selection: SE-1 / Number of Explants at Various Stages of Selection: SE-2 / Number of Explants at Various Stages of Selection: SI-2: 49 explants at CC
# Protocol: Initially, a dose response study was completed. To test the effect of glyphosate on the explants, glyphosate was added to media used from the shoot initiation stage and onwards. Glyphosate was tested from the range of 0.025-0.2 mM. Incorporation of glyphosate in tissue culture media within this concentration range has been reported in soybean (Clemente et al, 2000; Hinchee et al, 1996; Martinell et al, 2006; Martinell et al, 1999; Martinell et al, 2002), tobacco (Singer et al, 1985), cotton (Zhao et al, 2006) and wheat (Hu et al, 2003). Five concentrations of glyphosate were tested for culturing of un-transformed soybean explants. The concentrations incorporated into the SI-2 media were 0.025 mM, 0.05 mM, 0.075 mM, 0.1 mM and 0.2 mM. The un-transformed soybean explants were maintained on the same rate of glyphosate selection for all the successive stages of subculture from SI-2 media to the completion of the tissue culturing protocol. The numbers of healthy explants were counted at each subculture stage. Dead explants were discarded and healthy explants were subcultured further onto appropriate media.
# Growth of the explants was also retarded on glyphosate containing media. Next, the cotyledons were removed and the explants were subcultured from SI-2 to SE media. At the end of another two weeks of selection on SE media, significant differences in the growth of the explants were observed when the explants were exposed to different levels of glyphosate. The retarded growth of the explants was proportionate to the increasing dose of glyphosate. Similarly the number of dead explants was also proportional to the increasing dose of glyphosate. The number of dead explants increased as the dose of glyphosate was increased. […] Subsequently, three different concentrations of glyphosate (e.g., 0.025 mM, 0.05 mM and 0.1 mM) were incorporated into the selection schemes for Agrobacterium-mediated transformation of the soybean split-seed explants comprising a portion of an embryonic axis.
structure (smiles),measurement,setting,value
O=C(O)CNCP(=O)(O)O [glyphosate],yellowing of the cotyledons,"soybean explants; after first selection cycle, two weeks on SI-2 media",yellowing of the cotyledons was noted
same,adverse physiological effects on explants,"soybean explants; highest level, 0.1 mM, of 0.025, 0.05 and 0.1 mM",greatest adverse physiological effects
same,softening of explant tissue,"soybean explants; media containing glyphosate, pronounced from end of SE-1",softening on the surfaces of the plant tissues
same,Number of Explants at Various Stages of Selection: End of SE-2,[1]; 0.025 mM glyphosate,0
same,Number of Explants at Various Stages of Selection: SE-1,[1]; 0.025 mM glyphosate,41
same,Number of Explants at Various Stages of Selection: SE-2,[1]; 0.025 mM glyphosate,38
same,Number of Explants at Various Stages of Selection: SI-2,[1]; 0.025 mM glyphosate,43
same,Number of Explants at Various Stages of Selection: End of SE-2,[1]; 0.05 mM glyphosate,0
same,Number of Explants at Various Stages of Selection: SE-1,[1]; 0.05 mM glyphosate,45
same,Number of Explants at Various Stages of Selection: SE-2,[1]; 0.05 mM glyphosate,38
same,Number of Explants at Various Stages of Selection: SI-2,[1]; 0.05 mM glyphosate,45
same,Number of Explants at Various Stages of Selection: End of SE-2,[1]; 0.075 mM glyphosate,0
same,Number of Explants at Various Stages of Selection: SE-1,[1]; 0.075 mM glyphosate,45
same,Number of Explants at Various Stages of Selection: SE-2,[1]; 0.075 mM glyphosate,21
same,Number of Explants at Various Stages of Selection: SI-2,[1]; 0.075 mM glyphosate,47
same,Number of Explants at Various Stages of Selection: End of SE-2,[1]; 0.1 mM glyphosate,0
same,Number of Explants at Various Stages of Selection: SE-1,[1]; 0.1 mM glyphosate,41
same,Number of Explants at Various Stages of Selection: SE-2,[1]; 0.1 mM glyphosate,13
same,Number of Explants at Various Stages of Selection: SI-2,[1]; 0.1 mM glyphosate,44
same,Number of Explants at Various Stages of Selection: End of SE-2,[1]; 0.2 mM glyphosate,0
same,Number of Explants at Various Stages of Selection: SE-1,[1]; 0.2 mM glyphosate,31
same,Number of Explants at Various Stages of Selection: SE-2,[1]; 0.2 mM glyphosate,1
same,Number of Explants at Various Stages of Selection: SI-2,[1]; 0.2 mM glyphosate,42
same,explant survival at the end of SE-2,"[1]; all levels of glyphosate tested, after six weeks on selection",all of the explants were dead
same,extent of yellowness of the cotyledons,"[1]; end of culturing on SI-2 media, about 2 weeks",directly proportional to the dose of glyphosate
same,growth of the explants,[1]; glyphosate containing SI-2 media,retarded
same,explants survived at the end of SE-1,"[1]; highest dose, 0.2 mM",one
same,explant survival after 6 weeks of glyphosate selection,"[1]; lowest dose tested, 0.025 mM",none of the soybean explants were able to survive
